The structures appear in SMILES notation.

The assay deals with HCV replicon. Briefly: HCV replicon replication assay (NPT ELISA) in Huh-7 replicon-containing cells. The conditions noted are these: Hepatitis C virus, 72 h; HCV replicon in Huh-7 cells, three days incubation; read-out: EC50. It is filed as cell-based. As to the method: Compounds claimed herein are tested for the ability to inhibit viral replication of the Hepatitis C replicon in cultured cells in which the HCV replicon construct has been incorporated. The HCV replicon system was described by Bartenschlager, et. al (Science, 285, pp. 110-113 (1999)). The replicon system is predictive of in vivo anti-HCV activity; compounds that are active in humans uniformly evidence activity in the replicon assay.
In this assay HCV replicon containing cells are treated with different concentrations of the test compound to ascertain the ability of the test compound to suppress replication of the HCV replicon. As a positive control, HCV replicon-containing cells are treated with different concentrations of interferon alpha, a known inhibitor of HCV replication. The replicon assay system includes Neomycin Phosphotransferase (NPT) as a component of the replicon itself in order to detect the transcription of replicon gene products in the host cell. Cells in which the HCV replicon is actively replicating have high levels of NPT; the level of NPT is proportional to HCV replication. […] The NPT level of each sample is measured using a captured ELISA.
A protocol for testing compounds for the ability to inhibit viral replication of the Hepatitis C replicon cultured cells in which the replicon construct has been incorporated, follows.
The HCV replicon contains, 5′-3′, the HCV-IRES, the neomycin phosphotransferase (neo) gene, the IRES of encephalomyocarditis virus, which directs translation of HCV sequences NS3 to NS5B, and the 3′-NTR. The sequence of the HCV replicon has been deposited in GenBank (Accession no. AJ242652).
The replicon is transfected into Huh-7 cells using standard methods such as electroporation.
The equipment and materials include, but are not limited to, Huh-7 HCV replicon-containing cells, maintenance media (DMEM (Dulbecco's modified Eagle media) supplemented with 10% FBS, L-glutamine, non-essential amino acids, penicillin (100 units/ml), streptomycin (100 micrograms/ml), and 500 micrograms/ml of Geneticin (G418), screening media (DMEM supplemented with 10% FBS, L-glutamine, non-essential amino acids, penicillin (100 units/ml) and streptomycin (100 micrograms/ml)), 96 well tissue culture plates (flat bottom), 96 well plates (U bottom for drug dilution), Interferon alpha for positive control, fixation reagent (such as methanol: acetone), primary antibody (rabbit anti-NPTII), secondary antibody: Eu-N1 l, and enhancement solution.
HCV replicon-containing cells support high levels of viral RNA replicon replication when their density is suitable. Over-confluency causes decreased viral RNA replication. Therefore, cells must be kept growing in log phase in the presence of 500 micrograms/ml of G418. Generally, cells should be passed twice a week at 1: 4-6 dilution. Cell maintenance is conducted as follows:
HCV replicon-containing cells are examined under a microscope to ensure that cells growing well. Cells are rinsed once with PBS and 2 ml trypsin is added. The cell/trypsin mixture is incubated at 37° C. in a CO2 incubator for 3-5 minutes. After incubation 10 ml of complete media is added to stop the trypsinization reaction. Cells are blown gently, put into a 15 ml tube, and spun at 1200 rpm for 4 minutes. The trypsin/medium solution is removed. Medium (5 ml) is added and the cells are mixed carefully. The cells are counted.
The cells are then seeded onto 96-well plates at a density of 6000-7500 cells/100 microliters/well (6-7.5×10^5 cells/10 ml/plate). The plates are then incubated at 37° C. in a 5% CO2 incubator.
Cells are examined under a microscope approximated 24 hours after seeding and prior to adding drugs. If counting and dilution were performed correctly, cells are 60-70% confluent and nearly all cells should attach and spread evenly in the well.
HCV replicon-containing cells are rinsed with once PBS once; 2 mls of trypsin are then added. Cells are incubated at 37° C. in a 5% CO2 incubator for 3-5 minutes. […]
In general terms: Replicon systems follow genome replication, usually without infectious particles.
The EC50 is the concentration that produces a half-maximal response. In the case of `C=C[C@@H]1C[C@]1(NC(=O)[C@@H]1C[C@@H](Oc2cc(-c3ccccc3)nc3cc(OC)ccc23)CN1C(=O)[C@@H](CC(=O)N1CCCC[C@H]1C(=O)Nc1nccs1)C(C)(C)C)C(=O)NS(=O)(=O)C1CC1` [Compound 211, (2S)-1-((3S)-3-((2S,4R)-2-((1R)-1-(cyclopropyl-sulfonylcarbamoyl)-2-vinylcyclopropyl-carbamoyl)-4-(7-methoxy-2-phenylquinolin-4-yloxy)pyrrolidine-1-carbonyl)-4,4-dimethylpentanoyl)-N-(thiazol-2-yl)piperidine-2-carboxamide], the EC50 is < 1000 nM. With `C=C[C@@H]1C[C@]1(NC(=O)[C@@H]1C[C@@H](Oc2cc(-c3ccccc3)nc3cc(OC)ccc23)CN1C(=O)[C@@H](CC(=O)N1CCCC(=O)C1)C(C)(C)C)C(=O)NS(=O)(=O)C1CC1` [Compound 141, (2S,4R)-1-((S)-2-tert-butyl-4-oxo-4-(3-oxopiperidin-1-yl)butanoyl)-N-((1R,2S)-1-(cyclo-propylsulfonyl-carbamoyl)-2-vinylcyclopropyl)-4-(7-methoxy-2-phenylquinolin-4-yloxy)pyrrolidine-2-carboxamide], the EC50 was < 1000 nM. On to `C=C[C@@H]1C[C@]1(NC(=O)[C@@H]1C[C@@H](Oc2cc(-c3ccccc3)nc3cc(OC)ccc23)CN1C(=O)[C@@H](CC(=O)N1CCC1c1cccc(OC)c1)C(C)(C)C)C(=O)NS(=O)(=O)C1CC1` (stereo partly drawn) [Compound 228, (2S,4R)-1-((2S)-2-tert-butyl-4-(2-(3-methoxyphenyl)aze-tidin-1-yl)-4-oxobutanoyl)-N-((1R)-1-(cyclopropyl-sulfonylcarbamoyl)-2-vinylcyclopropyl)-4-(7-methoxy-2-phenylquinolin-4-yloxy)pyrrolidine-2-carboxamide], for which the EC50 is < 1000 nM. For `C=C[C@@H]1C[C@]1(NC(=O)[C@@H]1C[C@@H](Oc2cc(-c3ccccn3)nc3cc(OC)ccc23)CN1C(=O)[C@@H](CC(=O)N1CCC(F)(F)C1)C(C)(C)C)C(=O)NS(=O)(=O)C1CC1` [Compound 214, (2S,4R)-1-((S)-2-tert-butyl-4-(3,3-difluoropyrrolidin-1-yl)-4-oxobutanoyl)-N-((1R)-1-(cyclopropyl-sulfonylcarbamoyl)-2-vinylcyclopropyl)-4-(7-methoxy-2-(pyridin-2-yl)quinolin-4-yloxy)pyrrolidine-2-carboxamide], the EC50 is < 1000 nM. With `C=C[C@@H]1C[C@]1(NC(=O)[C@@H]1C[C@@H](Oc2cc(-c3nc(C(C)C)cs3)nc3c(C)c(OC)ccc23)CN1C(=O)[C@@H](CC(=O)N1CCCCC1)C(C)(C)C)C(=O)NS(=O)(=O)C1CC1` [Compound 255, (2S,4R)-1-((S)-2-tert-butyl-4-oxo-4-(piperidin-1-yl)butanoyl)-N-((2S)-1-(cyclopropyl-sulfonylcarbamoyl)-2-vinylcyclopropyl)-4-(2-(4-isopropylthiazol-2-yl)-7-methoxy-8-methylquinolin-4-yloxy)pyrrolidine-2-carboxamide], the half-maximal effective concentration (EC50) was < 1000 nM.

For the compound `C=C[C@@H]1C[C@]1(NC(=O)[C@@H]1C[C@@H](Oc2cc(-c3ccccc3)cc3cc(OC)ccc23)CN1C(=O)[C@@H](CC(=O)N1CCCCC1)C(C)(C)C)C(=O)NS(=O)(=O)C1CC1` [Compound 233, (2S,4R)-1-((S)-2-tert-butyl-4-oxo-4-(piperidin-1-yl)butanoyl)-N-((1R)-1-(cyclopropyl-sulfonylcarbamoyl)-2-vinylcyclopropyl)-4-(6-methoxy-3-phenylnaphthalen-1-yloxy)pyrrolidine-2-carboxamide], the EC50 was < 1000 nM. Consider `C=C[C@@H]1C[C@]1(NC(=O)[C@@H]1C[C@@H](Oc2cc(-c3ccccc3)nc3cc(OC)ccc23)CN1C(=O)[C@@H](CC(=O)N1CCC1)C(C)(C)C)C(=O)NS(=O)(=O)C1CC1` [Compound 222, (2S,4R)-1-((S)-4-(azetidin-1-yl)-2-tert-butyl-4-oxobutanoyl)-N-((1R)-1-(cyclopropyl-sulfonylcarbamoyl)-2-vinylcyclopropyl)-4-(7-methoxy-2-phenylquinolin-4-yloxy)pyrrolidine-2-carboxamide], for which the EC50 is < 1000 nM.

The values are drawn from patent US9133115B2 (ACHILLION PHARMACEUTICALS, INC., priority 2008, dated 2015).
